Assay results reported in US11512268B2, “Storage-stable enzyme preparations, their production and use” (BASF SE, priority 2017, dated 2022).

Legend:
Lipolase = biological target: T1, Lipolase (Thermomyces lanuginosus, UniProt O59952); experiment: storage stability of lipase (Lipolase activity, pNitrophenol-valerate substrate) in liquid formulations at 37° C.; format: biochemical, Thermomyces lanuginosa; details: Lipolase 0.4 wt %, storage at 37° C.
T1 construct: purchased Sigma-Aldrich
T1 sequence (O59952 23-291): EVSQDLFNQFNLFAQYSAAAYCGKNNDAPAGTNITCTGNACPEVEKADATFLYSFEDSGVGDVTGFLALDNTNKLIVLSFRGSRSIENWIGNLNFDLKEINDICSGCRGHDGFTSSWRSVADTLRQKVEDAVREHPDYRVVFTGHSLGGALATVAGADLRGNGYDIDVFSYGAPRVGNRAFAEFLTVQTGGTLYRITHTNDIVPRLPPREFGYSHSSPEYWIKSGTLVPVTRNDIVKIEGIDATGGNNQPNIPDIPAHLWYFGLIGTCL

Savinase = biological target: T2, Savinase (Lederbergia lenta, UniProt P29600); experiment: storage stability of protease (Savinase activity, Suc-AAPF-pNA substrate) in liquid formulations at 37° C.; format: biochemical; details: component (a) 2.5 wt %, Savinase 16.0 L 0.5 wt %, storage at 37° C.
T2 construct: purchased Sigma-Aldrich
T2 sequence (P29600 1-269): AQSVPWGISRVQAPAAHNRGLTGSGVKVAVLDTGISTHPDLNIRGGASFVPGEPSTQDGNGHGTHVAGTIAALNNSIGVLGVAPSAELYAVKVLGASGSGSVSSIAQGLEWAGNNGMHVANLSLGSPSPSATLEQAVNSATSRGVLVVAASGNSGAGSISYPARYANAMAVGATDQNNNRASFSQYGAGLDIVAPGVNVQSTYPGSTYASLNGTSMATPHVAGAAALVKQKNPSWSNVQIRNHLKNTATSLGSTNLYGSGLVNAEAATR

C[N+](C)(C)CCO.C[N+](C)(C)CCO.O=C([O-])CC(O)(CC(=O)O)C(=O)[O-] [C-(A.17)]
lipase activity (Lipolase; base formulation I., component (a) 2.5 wt %, 1 d): 90% | lipase activity (Lipolase; base formulation I., component (a) 2.5 wt %, 3 d): 80% | lipase activity (Lipolase; base formulation I., component (a) 2.5 wt %, 6 d): 70% | lipase activity (Lipolase; base formulation I., component (a) 2.5 wt %, 10 d): 53% | lipase activity (Lipolase; base formulation I., component (a) 2.5 wt %, 15 d): 42% | lipase activity (Lipolase; base formulation I., component (a) 2.5 wt %, 20 d): 38% | lipase activity (Lipolase; base formulation I., component (a) 2.5 wt %, 25 d): 33% | lipase activity (Lipolase; base formulation I., component (a) 2.5 wt %, 30 d): 29% | lipase activity (Lipolase; base formulation I., component (a) 2.5 wt %, T0): 97% | lipase activity (Lipolase; base formulation IV., component (a) 4.0 wt %, 1 d): 93% | lipase activity (Lipolase; base formulation IV., component (a) 4.0 wt %, 3 d): 86% | lipase activity (Lipolase; base formulation IV., component (a) 4.0 wt %, 6 d): 74% | lipase activity (Lipolase; base formulation IV., component (a) 4.0 wt %, 10 d): 63% | lipase activity (Lipolase; base formulation IV., component (a) 4.0 wt %, 15 d): 51% | lipase activity (Lipolase; base formulation IV., component (a) 4.0 wt %, 20 d): 46% | lipase activity (Lipolase; base formulation IV., component (a) 4.0 wt %, 25 d): 38% | lipase activity (Lipolase; base formulation IV., component (a) 4.0 wt %, 30 d): 33% | lipase activity (Lipolase; base formulation IV., component (a) 4.0 wt %, T0): 96% | protease activity (Savinase; base formulation I., 1 d): 90% | protease activity (Savinase; base formulation I., 3 d): 81% | protease activity (Savinase; base formulation I., 6 d): 70% | protease activity (Savinase; base formulation I., 10 d): 49% | protease activity (Savinase; base formulation I., 15 d): 38% | protease activity (Savinase; base formulation I., 20 d): 30% | protease activity (Savinase; base formulation I., 25 d): 23% | protease activity (Savinase; base formulation I., 30 d): 12% | protease activity (Savinase; base formulation I., T0): 98% | protease activity (Savinase; base formulation III., 1 d): 94% | protease activity (Savinase; base formulation III., 3 d): 83% | protease activity (Savinase; base formulation III., 6 d): 71% | protease activity (Savinase; base formulation III., 10 d): 53% | protease activity (Savinase; base formulation III., 15 d): 42% | protease activity (Savinase; base formulation III., 20 d): 34% | protease activity (Savinase; base formulation III., 25 d): 27% | protease activity (Savinase; base formulation III., 30 d): 14% | protease activity (Savinase; base formulation III., T0): 92%
